What was measured:
H23 = test: MTT cytotoxicity assay, 72 h; format: cell-based; details: Homo sapiens, NCI-H23, H23 NSCLC cells, plated to confluence, read-out: IC50 (mean cytotoxic concentration, MTT)
Protocol: (§1) To determine whether the effects on cell viability in AML cells were related to the specific cancer subtypes, or to differences in temporal response to DJ4, we examined whether DJ4 affected the viability of various NSCLC cells over longer periods of drug exposure. MTT assays were performed on H1299, H226, A549, H522, H23, and H460 NSCLC cell lines. […] Similarly, the cell viability of MDA-MB-231 breast cancer cells was assessed by counting live/dead cell populations after a 24-h treatment with 1–10 µM concentrations of DJ4. A concentration-dependent increase in cell death from 29% (1 µM) to 47% (10 µM) was observed (Figure 2B).
(§2) The cytotoxic effect of DJ4 was studied in H1299, H226, A549, H522, H23, and H460 non-small cell lung cancer cells. The cells were seeded into 96-well plates with confluence ([…]). The cells were further treated with DMSO or DJ4 for 72 h. To study the effects of analogs, A549, A375M, and MDA-MB-231 cells were plated with low density (2000 cells/well) in a 96-well plate and grown overnight at 37 °C (with 5% CO2). Cells were treated with the analogs at the concentration of 0–10 µM for 48 h. At the end of the treatment period, cells were incubated with a tetrazolium dye MTT (3-(4,5-dimethylthiazol-2-yl)-2,5-diphenyltetrazolium bromide) reagent (Sigma) at 37 °C for 3 h to develop formazan crystals. The media was siphoned off and crystals were dissolved in DMSO and mixed gently on rocker for 5 min. Absorbance was read at 570 nm and 630 nm (background) wavelength. IC50 values were calculated from non-linear regression curve fit by using GraphPad Prism 5.0 software.

H460 = test: MTT cytotoxicity assay, 72 h; format: cell-based; details: Homo sapiens, NCI-H460, H460 NSCLC cells, plated to confluence, read-out: IC50 (mean cytotoxic concentration, MTT)
Protocol: as §1, §2

H1299 = test: MTT cytotoxicity assay, 72 h; format: cell-based; details: Homo sapiens, NCI-H1299, H1299 NSCLC cells, plated to confluence, read-out: IC50 (mean cytotoxic concentration, MTT)
Protocol: as §1, §2

H522 = test: MTT cytotoxicity assay, 72 h; format: cell-based; details: Homo sapiens, NCI-H522, H522 NSCLC cells, plated to confluence, read-out: IC50 (mean cytotoxic concentration, MTT)
Protocol: as §1, §2

H226 = test: MTT cytotoxicity assay, 72 h; format: cell-based; details: Homo sapiens, NCI-H226, H226 NSCLC cells, plated to confluence, read-out: IC50 (mean cytotoxic concentration, MTT)
Protocol: as §1, §2

A549 = test: MTT cytotoxicity assay, 72 h; format: cell-based; details: Homo sapiens, A549 NSCLC cells, plated to confluence, read-out: IC50 (mean cytotoxic concentration, MTT)
Protocol: as §1, §2

[1] = tested on: pMYPT1 (Thr696 and Thr853) in MDA-MB-231 cells; test: Western blot of MYPT1 phosphorylation (ROCK1/2 targeting); format: cell-based, human; details: MDA-MB-231, 2.5, 5.0 and 10 µM, 24 h
Protocol: To extend these observations to MDA-MB-231 breast cancer cells, cells were treated with DJ4 at 2.5, 5.0, and 10 µM for 24 h. ROCK1/2 catalyzes the inactivating phosphorylation of the myosin phosphatase subunit MYPT1 at Thr696 and Thr853 [16]. To confirm the targeting of ROCK1/2 by DJ4 in MDA-MB-231 cells, we probed for phosphorylation of MYPT1.
For protein expression studies, MDA-MB-231 cells were treated with indicated concentrations of DJ4 for 24 h. Additionally, A549 cells were treated for 24 h and 48 h. Cell lysate preparation, protein estimation, and Western blot analysis was performed as per the procedure reported earlier. The blots were probed with cleaved caspase 7 (#9492, Cell Signaling, Danvers, MA, USA), GAPDH (#97166, Cell Signaling, Danvers, MA, USA), β-Actin (#3700, Cell Signaling, Danvers, MA, USA), pErk (#5726, Cell Signaling, Danvers, MA, USA), p21 ^WAF1/CIP1 (#60480, Cell Signaling, Danvers, MA, USA), cyclinD3 (#2936, Cell Signaling, Danvers, MA, USA), CDK4 (#23972, Cell Signaling, Danvers, MA, USA), cleaved PARP (#32563, Cell Signaling, Danvers, MA, USA), pan Erk (#23887, Cell Signaling, Danvers, MA, USA), pMYPT1 (Thr853, # SAB4503944, Millipore, Inc., Burlington, MA, USA) and PCNA (#sc-56, Santa Cruz Biotechnology, Inc., Dallas, TX, USA) antibodies.

A549 lung cancer cells = test: Colony forming assay; format: cell-based, human; details: then 14 days treatment-free, relative to control
Protocol: Figure 2 DJ4 reduces cell survival and inhibits colony forming ability of the cancer cells. (A) Different NSCLC cells were plated in a 96-well plate to confluence and then treated for 72 h. Cytotoxicity was assessed by MTT assay. The error bars indicate SEM of triplicates. (B) To assess cytotoxicity of DJ4 in breast cancer cells, MDA-MB-231 cells were treated for 24 h with indicated concentrations of DJ4. Percentage of live cells were counted using Muse^TM Live/Dead reagent and analyzed by Muse^TM cell analyzer. Error bars indicate SEM. n = 2. * p < 0.05. (C) DJ4 inhibits colony forming ability of A549 cells treated for 48 h. After a 48-h treatment, cells were seeded with number of cells mentioned in the table and were allowed to grow and form colonies. At the end of 14 days, colonies were stained and counted. Percent surviving fraction was calculated. The figure is the representative of the replicates. (D) The data are summarized in the table and represent the average of three replicates. TEXT PRINTED IN THE PICTURE: (D) DJ4: Surviving Fraction after 14 days (%): 2.3 (Concentration: 2.5μM; Number of cells plated: 2000; SEM: 0.1); Surviving Fraction after 14 days (%): 0.4 (Concentration: 5μM; Number of cells plated: 4000; SEM: 0.0); Surviving Fraction after 14 days (%): 0.1 (Concentration: 10μM; Number of cells plated: 8000; SEM: 0.0)
To further determine the effects of DJ4 on cell proliferation, we performed colony forming assays in A549 lung cancer cells. Forty-eight hours after the treatment with 2.5, 5.0, and 10 µM DJ4, individual cells were re-plated at low seeding density and colony formation was monitored for 14 days. The percent surviving fraction of cells relative to control cells that formed the distinct colonies were 2.3%, 0.4%, and 0.1% at 2.5, 5.0, and 10 µM, respectively, after 14 days of growth in a treatment-free culture medium (Figure 2C,D).

Compound `O=C1N/C(=N\CCc2ccccc2)S/C1=C/c1c[nH]c2ncccc12` [DJ4] has an IC50 (H23) of 2910 ± 710 nM, an IC50 (H460) of 9530 nM and an IC50 (H1299) of 440 ± 40 nM. For the same compound, the IC50 (H522) was 1690 ± 480 nM, the IC50 (H226) was 670 ± 380 nM and the IC50 (A549) was 980 ± 210 nM. The “pMYPT1 (Thr696 and Thr853)” value [1] was “concentration-dependent decrease”, the “Surviving Fraction after 14 days” value (A549 lung cancer cells; A549, 2.5 µM for 48 h) was 2.3% and the “Surviving Fraction after 14 days” value (A549 lung cancer cells; A549, 5.0 µM for 48 h) was 0.4%. For the same compound, the “Surviving Fraction after 14 days” value (A549 lung cancer cells; A549, 10 µM for 48 h) was 0.1%.

— paper PMC10458458, “Characterization of Anticancer Effects of the Analogs of DJ4, a Novel Selective Inhibitor of ROCK and MRCK Kinases” (Pharmaceuticals, 2023)
